Laboratory results taken from PMC9230548, “Synthesis and Biological Evaluation of Novel Synthetic Indolone Derivatives as Anti-Tumor Agents Targeting p53-MDM2 and p53-MDMX” (Molecules, 2022).
Like-named read-outs stand apart in the source and are kept apart here.

Legend:
[1] = system: MCF7 cell line; test: MTT assay, MCF7; assay type: cell-based; details: average of three determinations
Procedure: (§1) Compounds were tested at six concentrations (0.001–100 μM).
(§2) The cells were seeded into a 96-well plate and allowed to attach overnight, after which various concentrations of test compounds or DMSO were added to the culture medium and the cells were incubated for 48 h at 37 °C in a 5% CO2 humidified incubator. Then, 20 μL of 0.5% the fresh MTT solution was added to each well. After incubation for another 4 h, the culture medium was removed and 150 μL of DMSO was added to dissolve the formazan crystals. The absorbance at 540 nm was measured using a microplate reader. The results, expressed as IC50 values, were the average of three determinations and were calculated using nonlinear regression analysis.

[2] = biological target: MDM2 (Homo sapiens, UniProt Q00987); test: fluorescence polarization assay, MDM2 binding
MDM2, sequence (Q00987 whole entry): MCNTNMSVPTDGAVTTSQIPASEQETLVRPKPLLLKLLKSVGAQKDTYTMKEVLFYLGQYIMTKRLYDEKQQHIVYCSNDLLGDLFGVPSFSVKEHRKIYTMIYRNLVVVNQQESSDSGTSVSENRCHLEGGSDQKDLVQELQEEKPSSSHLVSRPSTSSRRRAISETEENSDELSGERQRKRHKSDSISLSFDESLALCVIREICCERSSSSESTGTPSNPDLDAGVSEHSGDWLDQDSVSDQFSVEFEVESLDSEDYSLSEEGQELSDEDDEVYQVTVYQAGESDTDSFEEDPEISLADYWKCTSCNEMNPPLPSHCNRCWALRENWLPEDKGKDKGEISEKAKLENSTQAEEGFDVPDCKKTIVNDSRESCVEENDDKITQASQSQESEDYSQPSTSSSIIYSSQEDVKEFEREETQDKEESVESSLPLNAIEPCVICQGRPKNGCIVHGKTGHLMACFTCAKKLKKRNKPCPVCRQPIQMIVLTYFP
Procedure: (§3) The MDM2 and MDMX binding evaluation for the target compounds was carried out using the fluorescence polarization assay.
(§4) Dose-dependent MDM2 and MDMX binding evaluations were carried out using the fluorescence polarization assay.
(§5) A total of 30 nM preincubated (30 min) MDM2 (or MDMX) and 10 nM PMDM-F peptide in reaction buffer (100 μL, potassium phosphate, 100 mM; bovine gamma globulin, 100 mg/mL; sodium azide, 0.02%) were added into a 96-well plate containing the tested compounds at pH 7.5.

[3] = system: HCT116 cells with wild type p53; test: Western blotting of p53, MDM2 and MDMX levels; assay type: cell-based; details: HCT116 cells, 0, 5, 10 and 20 μM, 48 h, Western blot
Procedure: The dual inhibition of the p53-MDM2 and p53-MDMX interactions is expected to activate p53, increasing its level in the cells with wild-type p53. In addition, p53 activation can also result in an increase in the levels of the MDM2 and MDMX proteins. To verify these predictions, Western blotting was used to assess the effects of compound A13 in the HCT 116 cells. The cells were treated with compound A13 for 48 h. Subsequently, the cells were lysed and protein extracts were analyzed for the levels of p53, MDM2, and MDMX.
The HCT116 cells with wild type p53 were treated with compound A13 (0, 5, 10, and 20 μM) for 48 h. The cells were harvested and lysed with RIPA buffer (Sigma, St. Louis, […], USA) supplemented with a protease inhibitor cocktail (Sigma), followed by centrifugation at 12,000× g for 10 min. The supernatants were heated to 100 °C with loading buffer and the total protein concentrations were determined using a Bio-Rad protein assay. Protein samples were subjected to SDS-PAGE and transferred to a PVDF membrane. The membrane was blocked with 5% non-fat milk, and then incubated with the corresponding primary antibody (MDM2, MDMX, p53, and GAPDH) at 4 °C overnight. After binding with an appropriate secondary antibody conjugated with peroxidase, proteins were visualized using the ECL chemiluminescence system. GAPDH was used as a loading control.

[4] = system: A549 cell line; test: MTT assay, A549; assay type: cell-based; details: average of three determinations
Procedure: as §1, §2

[5] = system: HCT116 cell line; test: MTT assay, HCT116; assay type: cell-based; details: average of three determinations
Procedure: as §1, §2

[6] = biological target: T1, MDMX (Homo sapiens, UniProt O15151); test: fluorescence polarization assay, MDMX binding
T1 sequence (O15151 1-490): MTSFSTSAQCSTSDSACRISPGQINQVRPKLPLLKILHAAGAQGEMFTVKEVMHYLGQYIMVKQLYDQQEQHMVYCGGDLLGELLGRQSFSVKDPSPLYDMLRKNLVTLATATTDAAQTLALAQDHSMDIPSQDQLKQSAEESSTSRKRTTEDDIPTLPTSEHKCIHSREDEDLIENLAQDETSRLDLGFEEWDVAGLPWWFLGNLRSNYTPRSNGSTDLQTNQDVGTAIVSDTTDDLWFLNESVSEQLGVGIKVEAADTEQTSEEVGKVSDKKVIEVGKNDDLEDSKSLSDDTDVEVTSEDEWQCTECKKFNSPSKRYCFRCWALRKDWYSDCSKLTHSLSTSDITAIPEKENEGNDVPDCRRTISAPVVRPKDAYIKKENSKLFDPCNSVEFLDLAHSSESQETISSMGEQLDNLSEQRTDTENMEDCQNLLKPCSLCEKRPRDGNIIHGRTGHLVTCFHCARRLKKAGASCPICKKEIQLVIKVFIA
Procedure: as §3, §4, §5

[7] = read-out: Ki (μM) ± SD MDM2, fluorescence polarization, PMDM-F peptide, pH 7.5
[8] = read-out: Ki (μM) ± SD MDMX, fluorescence polarization, PMDM-F peptide, pH 7.5

SMILES	IC50 ([1]; Homo sapiens, MCF7, 48 h) [µM]	Ki [2] [µM]	IC50 ([4]; Homo sapiens, A549, 48 h) [µM]	IC50 ([5]; Homo sapiens, HCT-116, 48 h) [µM]	Ki [6] [µM]	Ki [2, 7] [µM]	melting point [°C]	Ki [6, 8] [µM]	IC50 ([1]; 48 h) [µM]	IC50 ([4]; 48 h) [µM]	IC50 ([5]; 48 h) [µM]	expression of MDM2 [3]	expression of MDMX [3]	level of p53 proteins [3]
O=C1/C(=C/c2cccc(Cl)c2)c2ccccc2N1S(=O)(=O)c1ccccc1Cl [Compound A12, (E)-3-(3-chlorobenzylidene)-1-((2-chlorophenyl)sulfonyl)indolin-2-one]	24.7 ± 2.53	0.19 ± 0.05	17.8 ± 2.19	15.4 ± 4.61	20.8 ± 2.01		125.1 to 126.3							
O=C1/C(=C/c2cccc(Cl)c2)c2ccccc2N1S(=O)(=O)c1ccccc1F [Compound A18, (E)-3-(3-chlorobenzylidene)-1-((2-fluorophenyl)sulfonyl)indolin-2-one]	24.7 ± 3.63	0.17 ± 0.03	22.6 ± 2.93	17.9 ± 2.11	17.7 ± 2.16									
O=C1/C(=C/c2cccc(Cl)c2)c2ccccc2N1S(=O)(=O)c1ccc(Cl)cc1 [Compound A14, (E)-3-(3-chlorobenzylidene)-1-((4-chlorophenyl)sulfonyl)indolin-2-one]	20.2 ± 2.86		20.3 ± 2.49	15.2 ± 3.14		0.082 ± 0.021	137.5 to 139.6	18.2 ± 1.39						
O=C1/C(=C/c2cccc(Cl)c2)c2ccccc2N1S(=O)(=O)c1cccc(F)c1 [Compound A19, (E)-3-(3-chlorobenzylidene)-1-((3-fluorophenyl)sulfonyl)indolin-2-one]	21 ± 2.58	0.076 ± 0.005	16.3 ± 1.82	10.2 ± 1.37	16.9 ± 1.74									
O=C1/C(=C/c2cccc(Cl)c2)c2ccccc2N1S(=O)(=O)c1cccc(Br)c1 [Compound A16]						0.079 ± 0.005		16.2 ± 1.94	26.5 ± 3.4	25.4 ± 3.62	21.7 ± 2.59			

More lines, in order of falling IC50 ([1]; Homo sapiens, MCF7, 48 h), values ahead:

IC50 ([1]; Homo sapiens, MCF7, 48 h) [µM]	Ki [2] [µM]	IC50 ([4]; Homo sapiens, A549, 48 h) [µM]	IC50 ([5]; Homo sapiens, HCT-116, 48 h) [µM]	Ki [6] [µM]	Ki [2, 7] [µM]	melting point [°C]	Ki [6, 8] [µM]	IC50 ([1]; 48 h) [µM]	IC50 ([4]; 48 h) [µM]	IC50 ([5]; 48 h) [µM]	SMILES	expression of MDM2 [3]	expression of MDMX [3]	level of p53 proteins [3]
27.6 ± 3.81		20.4 ± 1.98	17.5 ± 1.53		0.31 ± 0.03	184.8 to 185.6	17.3 ± 1.91				O=C1/C(=C/c2ccc(Cl)cc2)c2ccccc2N1S(=O)(=O)c1cccc(Cl)c1 [Compound A27, (E)-3-(4-chlorobenzylidene)-1-((3-chlorophenyl)sulfonyl)indolin-2-one]			
27.4 ± 3.37		26.4 ± 4.05	17 ± 2.37		0.28 ± 0.04	177.8 to 178.7	32.2 ± 3.24				O=C1/C(=C/c2cccc(Cl)c2)c2cc(Cl)ccc2N1S(=O)(=O)c1cccc(Cl)c1 [Compound A29, (E)-5-chloro-3-(3-chlorobenzylidene)-1-((3-chlorophenyl)sulfonyl)indolin-2-one]			
27.2 ± 2.83	0.23 ± 0.02	22.2 ± 2.13	16.3 ± 2.73	29.2 ± 3.51		141.7 to 143.1					O=C1/C(=C/c2cccc(Cl)c2)c2ccccc2N1S(=O)(=O)c1ccc(F)cc1 [Compound A20, (E)-3-(3-chlorobenzylidene)-1-((4-fluorophenyl)sulfonyl)indolin-2-one]			
15.7 ± 2.04	0.092 ± 0.007	13.5 ± 2.73	8.91 ± 1.35	19.3 ± 2.69							O=C1/C(=C/c2cccc(Cl)c2)c2ccccc2N1S(=O)(=O)c1cccc(C(F)(F)F)c1 [Compound A21, (E)-3-(3-chlorobenzylidene)-1-((3-(trifluoromethyl)phenyl)sulfonyl)indolin-2-one]			
11.2 ± 1.95	0.031 ± 0.007	12.5 ± 2.01	6.17 ± 0.93	7.24 ± 0.78							O=C1/C(=C/c2cccc(Cl)c2)c2ccccc2N1S(=O)(=O)c1cccc(Cl)c1 [Compound A13, (E)-3-(3-chlorobenzylidene)-1-((3-chlorophenyl)sulfonyl)indolin-2-one]	induced in a dose-dependent manner	induced in a dose-dependent manner	dose-dependent increase
